Assay results as given in PubChem BioAssay (NCI).
Several values for one entry are separate records, joined by “and”; a condition that tells them apart may be missing. Equal entries are not always repeated.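 Dose response: 5 concentrations. Exposure: 48 h. Format: 96-well plates. Endpoint: linear interpolation; highest concentration if not reached. GI50: concentration for 50% inhibition of growth. The concentration for full growth arrest is given as TGI.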

What was measured:
Experiment in all cases: inhibition of tumour cell growth, NCI panel, 48 h
DMS 114 small cell lung = system: DMS 114 small cell lung
DMS 273 small cell lung = system: DMS 273 small cell lung
HOP-18 NSCLC = system: HOP-18 NSCLC
LXFL 529 NSCLC = system: LXFL 529 NSCLC
M19-MEL melanoma = system: M19-MEL melanoma
SNB-78 CNS = system: SNB-78 CNS
XF 498 CNS = system: XF 498 CNS
BT-549 breast = system: BT-549 breast
HS 578T breast = system: HS 578T breast
MDA-MB-231 breast = system: MDA-MB-231 breast

Structure (SMILES) | TGI (DMS 114 small cell lung) [µM] | TGI (DMS 273 small cell lung) [µM] | TGI (HOP-18 NSCLC) [µM] | TGI (LXFL 529 NSCLC) [µM] | TGI (M19-MEL melanoma) [µM] | TGI (SNB-78 CNS) [µM] | TGI (XF 498 CNS) [µM] | GI50 (BT-549 breast) [µM] | TGI (BT-549 breast) [µM] | GI50 (HS 578T breast) [µM] | TGI (HS 578T breast) | GI50 (MDA-MB-231 breast) [µM] | TGI (MDA-MB-231 breast) [µM] | GI50 (DMS 114 small cell lung) [µM]
COc1ccc(C2CCc3cc4c(cc3/C2=N/OC(C)=O)OCO4)cc1OC (stereo unspecified) | 51.9 | 78.1 | > 100 | > 100 | 71 | > 100 | 57.5 |  |  |  |  |  |  | 
S=c1nc(-c2ccnc(-c3nc(=S)[nH][nH]3)c2)[nH][nH]1 | > 100 | > 100 | > 100 | > 100 | > 100 | > 100 | > 100 |  |  |  |  |  |  | 
COc1cc2cc3c4c(cc(OC)c(OC)c4c2cc1OC)CCN3C(=O)CCC(=O)NCCCN(C)C | > 100 | > 100 | > 100 | > 100 | 55.4 | > 100 | > 100 |  |  |  |  |  |  | 
Nc1ccc(S(=O)(=O)Nc2cnc3c(Cl)cccc3n2)cc1 | 202 | 467 | > 750 |  | > 625 | 528 | 719 | 220 | > 750 | 16.3 | > 79.5 µM and 504 µM | 78.1 | > 750 | 
O=C(c1ccc(Cl)cc1)C1OC12C(=O)Nc1ccccc12 (stereo unspecified) | 26.2 | 25.4 | 27 | 11.8 | 23.3 | 32.4 | 25 |  | 31.4 |  | 44.6 µM |  | 50.5 | 
CC1CC[C@]2(C(=O)O)CCC3(C)C(=CCC4[C@@]5(C)CC[C@H](OS(=O)(=O)c6ccccc6)C(C)(C)C5CC[C@]43C)[C@@H]2[C@H]1C (stereo partly specified) | > 100 | > 100 | > 100 | > 100 | > 100 | > 100 | > 100 |  |  |  |  |  |  | 
CCOc1ccc(C(CN2CCOCC2)C(C)=O)cc1OC (stereo unspecified) | 34 | 23.3 | 30.2 | 17 | 34.1 | 66.8 | 40.8 |  |  |  |  |  |  | 
COc1ccc(CCN=C2CCC(C(=O)NCCc3ccc(OC)c(OC)c3)N2)cc1OC (stereo unspecified) | > 100 | > 100 | > 100 | > 100 |  | > 100 | > 100 |  |  |  |  |  |  | 
COc1ccc(CCc2cc(OC)c(OC)c(OC)c2)cc1 | 0.323 | 1.43 | > 100 | 21 | > 100 | 0.0976 | 20.6 |  | > 100 |  | > 100 µM |  | 15.7 | 
Cc1cc(Cl)cc2c1NC(=O)C2=O (tested in a mixture with another compound) | 72.1 | > 100 | > 100 | > 100 | 28.8 | 91.1 | 62.4 |  |  |  |  |  |  | 
FC1OC2OC1C(OCc1ccccc1)C(OCc1ccccc1)C2OCc1ccccc1 (stereo unspecified) | > 100 | > 100 | 96.4 | > 100 | > 100 | > 100 | > 100 |  |  |  |  |  |  | 
C[C@@H]1C[C@]2(C[C@@H](C)C3[C@@H](CC4(C)[C@@H]5CCC6C(C)(C)OC(=O)C=C[C@]67C[C@@]5(CC[C@]34C)OO7)O2)OC1=O (stereo partly specified) | > 100 | > 100 | > 100 | > 100 |  | > 100 | 73.9 |  |  |  |  |  |  | 
C[C@]12CC[C@H](OC3CCCCO3)CC1=CC[C@@H]1C2CC[C@]2(C)/C(=N/O)CCC12 (stereo partly specified) | 37.9 | 51.8 | 30.5 | 45.6 |  | 64.4 | 68.6 |  |  |  |  |  |  | 
O=c1cc(-c2ccccn2)[nH]c2ccc(Cl)cc12 | 49 |  | > 100 | > 100 | > 100 | > 100 | > 100 |  |  |  |  |  |  | 13.9
